Columns and labels:
Aldose reductase = biological target: T1, Aldose reductase (Bos taurus, UniProt P16116); experiment: Effect on Aldose Reductase (inhibition of enzyme activity, photometric); type: biochemical; settings: 1×10^-5 M, aldose reductase partially purified from bovine lenses; read-out: Percent Inhibition of aldose reductase
T1 construct: Aldose reductase was separated and partially purified from bovine lenses; from tissue; host or cells: bovine lens
Method: Aldose reductase was separated and partially purified from bovine lenses by the method of Hayman and Kinoshita [J. Biol. Chem., 240, 877 (1965)]. Enzyme activities were photometrically determined by the method of Varma et al. [Biochem, Pharmac., 25, 2505 (1976)].
The inhibition of aldose reductase activity was determined employing each test compound in a concentration of 1×10^-5 M, and the results are as shown in Table 30.
As a control, the known compound, 5-[4-(1-methylcyclohexylmethoxy)benzyl]thiazolidine-2,4-dione ("Cpd. A") was tested by the same method and the result is also shown in Table 30: […]

[1] = test system: male mice of the ddY strain; experiment: Toxicity (acute oral, one-week observation); type: in vivo
Method: The test animals used were male mice of the ddY strain. The animals were employed in groups of 3. The animals of each group were administered orally with a single test compound in a dose of 300 mg/kg body weight. The compounds employed were those prepared as described in Examples 3, 4, 5 and 13.

[2] = oral, 300 mg/kg body weight, male ddY mice, groups of 3, 1 week

Cc1c(C)c2c(c(C)c1OCC(=O)O)CCC(C)(COc1ccc(CC3SC(=O)NC3=O)cc1)O2 (stereo not drawn) [Example 58, α-{2-[4-(2,4-Dioxothiazolidin-5-ylmethyl)phenoxymethyl]-2,5,7,8-tetramethylchroman-6yloxy}acetic acid] gave an inhibition at 10 µM (Aldose reductase) of 51.6%.
Cc1c(C)c2c(c(C)c1O)/C(=N/O)CC(C)(COc1ccc(CC3SC(=O)NC3=O)cc1)O2 (stereo not drawn) [Example 13, 5-{4-[6-Hydroxy-4-(E)-hydroxyimino-2,5,7,8-tetramethylchroman-2-ylmethoxy]benzyl}thiazolidine-2,4-dione] was tested, and the inhibition at 10 µM (Aldose reductase) was 55.5%, the “abnormalities attributable to the test compounds during observation” value (shortened to “abnormalities attributable”) ([1]; mouse, in vivo, po, 300 mg/kg) was “no abnormalities” and the “survival at the end of the 1 week observation period” value (“survival at the end” below) ([1]; mouse, in vivo, po, 300 mg/kg) was “All animals were alive”.
Work on Cc1c(C)c2c(c(C)c1OCC(=O)O)C(=O)CC(C)(COc1ccc(CC3SC(=O)NC3=O)cc1)O2 (stereo not drawn) [Example 59, α-{2-[4-(2,4-Dioxothiazolidin-5-ylmethyl)-phenoxymethyl]-2,5,7,8-tetramethyl-4-oxochroman-6-yloxy}acetic acid] yielded an inhibition at 10 µM (Aldose reductase) of 79.5%.
For CC(=O)Oc1cc2c(cc1C(C)(C)CC(C)(C)C)OC(C)(COc1ccc(CC3SC(=O)NC3=O)cc1)CC2 (stereo not drawn) [Example 4, 5-[4-(6-Acetoxy-2-methyl-7-(1,1,3,3-tetramethylbutyl)-chroman-2-ylmethoxy)benzyl]thiazolidine-2,4dione], the “abnormalities attributable” value [1, 2] was “no abnormalities” and the “survival at the end” value [1, 2] was “All animals were alive”.
With CC(C)(C)CC(C)(C)c1cc2c(cc1O)CCC(C)(COc1ccc(CC3SC(=O)NC3=O)cc1)O2 (stereo not drawn) [Example 5, 5-{4-[6Hydroxy-2-methyl-7-(1,1,3,3-tetramethylbutyl)-chroman-2-ylmethoxy]benzyl}thiazolidine-2,4-dione] the “abnormalities attributable” value [1, 2] was “no abnormalities” and the “survival at the end” value [1, 2] was “All animals were alive”.
CC1(COc2ccc(CC3SC(=O)NC3=O)cc2)CCCCC1 (stereo not drawn) [Cpd. A, 5-[4-(1-methylcyclohexylmethoxy)benzyl]thiazolidine-2,4-dione, reference compound] showed an inhibition at 10 µM (Aldose reductase) of 16.2%.
With CCCCCCCCC1(COc2ccc(CC3SC(=O)NC3=O)cc2)CCc2c(C)c(O)c(C)c(C)c2O1 (stereo not drawn) [Example 3, 5-[4-(6-Hydroxy-5,7,8-trimethyl-2-octylchroman-2-yl-methoxy)benzyl]thiazolidine-2,4-dione] the “abnormalities attributable” value [1, 2] was “no abnormalities” and the “survival at the end” value [1, 2] was “All animals were alive”.
